Laboratory results as given in patent US7851629B2, “Disubstituted phenylpiperidines as modulators of dopamine and serotonin neurotransmission” (NSAB, Filial af Neurosearch Sweden AB, Sverige, priority 2004, dated 2010).
Where “and” joins values, the source holds several entries; their conditions need not be identical. Identical values can stand only once. Counter-ions that a name gives are not always drawn.

Tests used:
[1] = tested on: extracellular 5-HT, dopamine and norepinephrine in the cortex; test: Microdialysis in awake and freely moving rats, cortex monoamines; type: in vivo, rat; settings: for levels of dopamine in the cortex / levels of norepinephrine in the cortex / 5-HT in the cortex: 50 μmol/kg s.c., pf. cortex; for levels of dopamine in the cortex / levels of norepinephrine in the cortex: FIG. 2-4; for 5-HT in the cortex: FIGS. 2-4
Text: The microdialysis technique (Ungerstedt, Herrera-Marschitz et al. 1982) is a well established technique for measuring extracellular levels of neurotransmitters (Ungerstedt 1991). The microdialysis technique was used to measure the effect of drugs upon the monoamine transmitters. The appended graphs (FIGS. 1-4) show the effects of one established antidepressant (citalopram) upon 5-HT in the cortex, as well as for three compounds claimed in the present invention (Examples 3, 5, and 6).
Male Sprague-Dawley rats weighing 220-320 g were used throughout the experiments. Before the experiment the animals were group housed, five animals in each cage, with free access to water and food. The animals were housed at least one week after arrival prior to surgery and use in the experiments. Each rat was used only once for microdialysis.
We use a modified version (Waters, Lofberg et al. 1994) of the I-shaped probe (Santiago and Westerink 1990). The dialysis membrane we use is the AN69 polyacrylonitrile/sodium methalylsulfonate copolymer (HOSPITAL; o.d./i.d. 310/220 μm: Gambro, Lund, Sweden). In the dorsal striatum we use probes with an exposed length of 3 mm of dialysis membrane and in the prefrontal cortex the corresponding length is 2.5 mm. The rats were operated under isoflurane inhalation anesthesia while mounted into a Kopf stereotaxic instrument. Coordinates were calculated relative to bregma; dorsal striatum AP+1, ML±2.6, DV−6.3; Pf cortex, AP+3.2, 8° ML±1.2, DV−4.0 according to (Paxinos and Watson 1986). The dialysis probe was positioned in a burr hole under stereotaxic guidance and cemented with phosphatine dental cement.
The rats were housed individually in cages for 48 h before the dialysis experiments, allowing them to recover from surgery and minimizing the risk of drug interactions with the anaesthetic during the following experiments. During this period the rats had free access to food and water. On the day of experiment the rats were connected to a micro perfusion pump via a swivel and were replaced in the cage where they could move freely within its confinements. The perfusion medium was a Ringer's solution containing in mmol/l: NaCl; 140, CaCl2; 1.2, KCl; 3.0, MgCl2; 1.0 and ascorbic acid; 0.04 according to (Moghaddam and Bunney 1989). The pump was set to a perfusion speed of 2 μl/min and 40 μl samples were collected every 20 min.
30 μl of each sample was injected into the chromatograph. On a 10-port injector (Valco CLOW), with two sample loops mounted in series (2 μl and 20 μl), each brain dialysate sample is loaded in both loops simultaneously. When the valve is switched to inject the main part of the 20 μl sample is introduced into a reverse-phase ion-pairing system for dopamine (DA), norepinephrine (NA), normetanephrine (NM), 3-methoxytyramine(3-MT) and serotonin (5-hydroxytryptamine, 5-HT) determination (large loop), while a small fraction (2 μl, from the small loop) is introduced on a reverse-phase column for the chromatography of the acidic monoamine metabolites 3,4-di-hydroxyphenylacetic acid (DOPAC), homovanillic acid (HVA) and 5-hydroxyindoleacetic acid (5-HIAA). The currents generated by the two EC detectors are converted to digital data and evaluated using Chromelion software (Dionex, Sunnyvale, Calif.) on a PC. The method sample turn over time was 4.5 min and two parallel experiments are normally analysed simultaneously on the system. After the experiment the rats were uncoupled from the perfusion pump and decapitated. Their brains were rapidly taken out and fixed in Neo-fix solution (Kebo-lab, Sweden) for subsequent inspection of probe localisation. The Animal Ethics Committee in Göteborg, Sweden approved the procedures applied in these experiments. • Moghaddam, B. and B. S. Bunney (1989). “Ionic Composition of Microdialysis Perfusing Solution Alters the Pharmacological Responsiveness and Basal Outflow of Striatal Dopamine.” J. Neurochem. 53: 652-654. • Paxinos, G. and C. Watson (1986). […]

[2] = tested on: drug-naive rats; test: Locomotor activity in drug-naive rats; settings: recorded for 60 minutes, ± SEM
[3] = tested on: schizophrenic patients; settings: selective sigma receptor antagonists; Borison et al 1991, Gewirtz et al 1994; cited from earlier work
[4] = tested on: MK-801 pre-treated rats; test: Locomotor activity in MK-801 pre-treated rats; settings: ± SEM; for Locomotor activity, MK + example: MK-801 0.7 mg/kg i.p. 90 minutes before test compound 33 μmol/kg, recorded 30-60 minutes after administration

What does the source list for `CCCN1CCC(c2cccc(F)c2F)CC1` [Example 5, 4-(2,3-difluorophenyl)-1-propylpiperidine]?
levels of dopamine in the cortex [1]: elevate; levels of norepinephrine in the cortex [1]: elevate; 5-HT in the cortex [1]: 5-HT increase in the cortex

Which “extracellular dopamine in the cortex” value ([1]; 10 mg/kg s.c., cortex, FIG. 5) does the source give for `CN1CCN2c3ncccc3Cc3ccccc3C2C1` (stereo not shown) [mirtazapine, reference compound] here?
The value was “increase”.

And the “extracellular norepinephrine in the cortex” value ([1]; 10 mg/kg s.c., cortex, FIG. 5)?
Its value is “increase”.

For `CCCN1CCC(c2cccc(Cl)c2Cl)CC1` [drawing 18], which Locomotor activity ([2]; 11 μmol/kg) is on record?
Its Locomotor activity is 7739 ± 1903 counts/60 min.

And the Locomotor activity ([2]; 33 μmol/kg)?
Its Locomotor activity is 7053 ± 659 counts/60 min.

What about the Locomotor activity ([2]; 100 μmol/kg) of the same compound?
The Locomotor activity was 4272 ± 1831 counts/60 min.

With `CCN1CCC(c2cccc(C(F)(F)F)c2F)CC1` (as salt: hydrochloric acid salt) [Example 3, 4-[2-fluoro-3-(trifluoromethyl)phenyl]-1-ethylpiperidine] as the compound, how does the melting point read?
Its melting point is 235 to 237 °C.

With `C[C@@H]1CN(CCCn2c3ccccc3c3ccccc32)C[C@H](C)N1` [BW234U] as the compound, how does the “outcome of clinical studies in schizophrenic patients” value [3] read?
Its value is “failed”.

Which melting point does the source give for `CCN1CCC(c2cccc(C#N)c2F)CC1` (as salt: oxalic acid salt) here?
Its melting point is 156 to 158 °C.

For `CCCN1CCC(c2cccc(F)c2F)CC1` [drawing 29], which “Locomotor activity, MK + example” value [4] is on record?
Its value is 19826 ± 6949 (P = 0.09) counts/30 min.

With `CCCN1CCC(c2cccc(OC(F)(F)F)c2F)CC1` (as salt: hydrochloric acid salt) [Example 2, 4-[2-fluoro-3-(trifluoromethoxy)phenyl]-1-propyl-piperidine] as the compound, how does the melting point read?
The melting point was 221 to 222 °C.

With `CCCN1CCC(c2cccc(Cl)c2Cl)CC1` [Example 6, 4-(2,3-dichlorophenyl)-1-propylpiperidine] as the compound, how does the “levels of dopamine in the cortex” value [1] read?
Its value is “elevate”.

What about the “levels of norepinephrine in the cortex” value [1] of the same compound?
Its value is “elevate”.

What about the “5-HT in the cortex” value [1] of the same compound?
Its value is 5-HT increase in the cortex.

Which melting point does the source give for `CCCN1CCC(c2cccc(Cl)c2Cl)CC1` (as salt: hydrochloric acid salt) [Example 6, 4-(2,3-dichlorophenyl)-1-propylpiperidine] here?
The melting point was 265 to 267 °C.

Which results are given for `CCCN1CCC(c2cccc(F)c2F)CC1` [drawing 19]?
Locomotor activity ([2]; 11 μmol/kg): 8894 ± 1039 counts/60 min; Locomotor activity ([2]; 33 μmol/kg): 9958 ± 1835 counts/60 min; Locomotor activity ([2]; 100 μmol/kg): 8154 ± 1388 counts/60 min

For `CCN1CCC(c2cccc(C(F)(F)F)c2F)CC1` [Example 3, 4-[2-fluoro-3-(trifluoromethyl)phenyl]-1-ethylpiperidine], which “levels of dopamine in the cortex” value [1] is on record?
The value was “elevate”.

And the “levels of norepinephrine in the cortex” value [1]?
The value was “elevate”.

What about the “5-HT in the cortex” value [1] of the same compound?
Its value is 5-HT increase in the cortex.

Which melting point does the source give for `CCCN1CCC(c2cccc(F)c2F)CC1` (as salt: hydrochloric acid salt) [Example 5, 4-(2,3-difluorophenyl)-1-propylpiperidine] here?
Its melting point is 237 to 238 °C.

With `CCCN1CCC(c2cccc(Cl)c2Cl)CC1` [drawing 28] as the compound, how does the “Locomotor activity, MK + example” value [4] read?
The value was 12943 ± 3226 (P = 0.06) counts/30 min.

For `OC(CCCN1CCN(c2ncc(F)cn2)CC1)c1ccc(F)cc1` (stereo not shown) [BMY14802], which “outcome of clinical studies in schizophrenic patients” value [3] is on record?
The value was “failed”.

Which melting point does the source give for `CN1CCC(c2cccc(C(F)(F)F)c2F)CC1` (as salt: hydrochloric acid salt) here?
Its melting point is 260 to 261 °C.

Which “Locomotor activity, MK-801” value ([4]; MK-801 0.7 mg/kg i.p. alone, recorded 30-60 minutes, 0.7 mg/kg) does the source give for `C[C@]12N[C@H](Cc3ccccc31)c1ccccc12` [MK-801, reference compound] here?
The value was 55810 ± 16124 counts/30 min and 30462 ± 6937 counts/30 min.

Which results are given for `CCN1CCC(c2cccc(C(F)(F)F)c2F)CC1` [drawing 17]?
Locomotor activity ([2]; 11 μmol/kg): 10587 ± 1027 counts/60 min; Locomotor activity ([2]; 33 μmol/kg): 6439 ± 418 counts/60 min; Locomotor activity ([2]; 100 μmol/kg): 4866 ± 941 counts/60 min
